Measured values as given in patent US12116388B2, “Amylin receptor agonists” (Novo Nordisk A/S, priority 2022, dated 2024).
Read-outs that look alike come from different tables or passages of the source. Starred links: 1 amine or outer side, 2 acyl side, 3 side chain; linkers in the order of their positions; H or OH if unused. Positions of bridges follow the written chain, without caps; N, C: chain ends. Residues, ends and D or L forms follow the SMILES beside them. *: point of attachment. C20 diacid = O=C(O)CCCCCCCCCCCCCCCCCCC(=O)*; C18 diacid = O=C(O)CCCCCCCCCCCCCCCCC(=O)*; γGlu = O=C(O)[C@H](CCC(=O)[*:2])N[*:1]

Key:
[1] = Oral pharmacokinetic profiles in Beagle dogs (SNAC tablets); format: in vivo; conditions: oral tablet: 3 mg compound, 300 mg SNAC, 7.7 mg magnesium stearate; for half-life: male, dog, plasma, read-out: T½ (converted)
Method: To be able to evaluate oral exposure following tablet dosing, tablet compositions comprising the test substance and SNAC (sodium N-(8-(2-hydroxybenzoyl)amino)caprylate) were prepared by mixing test substance with roller compacted SNAC and magnesium stearate as, e.g., described in WO 2019/149880.
This assay was performed to measure the oral bioavailability of a compound. The assay determined the exposure of test compound following oral administration in Beagle dogs as described by relevant pharmacokinetic parameters and plasma concentration curves.
Preparation of tablets for oral administration: tablets containing test compound used for the assay described herein were immediate release SNAC-based tablets. The test compound was spray-dried as neutral sodium salt (pH 7-8). Dry granulation was carried out by roller compaction on a Gerteis MINI-PACTOR. Tablets containing 3 mg test compound, 300 mg sodium N-(8-(2-hydroxybenzoyl)amino)caprylate (SNAC) and 7.7 mg magnesium stearate were produced on at Kilian Style One using 7.2×12 mm punches.
Determination of the absorption following oral administration: eight (8) male Beagle dogs, 1 to 8 years of age and weighing approximately 10-15 kg at the start of the studies, were used. The dogs were group-housed in pens (12 hours light:12 hours dark), and fed individually and restrictedly once daily with Royal Canin Medium Adult dog (Royal Canin Products, China Branch, or Brogaarden A/S, Denmark). Exercise and group social were permitted daily, whenever possible. The dogs were used for repeated pharmacokinetic studies with a suitable wash-out period between successive dosing. An appropriate acclimatisation period was given prior to initiation of the first pharmacokinetic study. All handling, dosing and blood sampling of the animals were performed by trained and skilled staff. Before the studies the dogs were fasted overnight and from 0 to 4 h after dosing. Besides, the dogs were restricted to water 1 hour before dosing until 4 hours after dosing, but otherwise had ad libitum access to water during the whole period.
Tablets containing the test compound were administered in the following manner: 10 min prior to tablet administration the dogs were dosed subcutaneously with approximately 3.2 nmol/kg of glucagon. The tablets were placed in the back of the mouth of the dog to prevent chewing. The mouth was then closed, and 10 mL of tap water was given by a syringe to facilitate swallowing of the tablet. Blood was sampled at predefined time points for up till 288 hours after dosing to adequately cover the full plasma concentration-time absorption profile of the compound. For each blood sampling time point approximately 1.2 mL of whole blood was collected in a 1.5 mL EDTA coated tube, and the tube was gently turned to allowing mixing of the sample with the EDTA. Then, the blood samples were kept on ice until centrifugation (4 min, 4° C., 4000 rpm). Plasma was pipetted into Micronic tubes on dry ice and kept at −20° C. until analysis. Blood samples were taken as appropriate, for example from a venflon in the cephalic vein in the front leg for the first 2 hours and then with syringe from the jugular vein for the rest of the time points (the first few drops were allowed to drain from the venflon to avoid heparin saline from the venflon in the sample).
Bioanalysis was carried out as follows: plasma concentrations of test compound were assayed by plasma protein precipitation and analysed by liquid chromatography-mass spectrometry (LC-MS). Calibrators were prepared by spiking blank dog plasma with analytes to reach the final concentrations in the range typically from 0.5 to 200 nM. Calibrators, plasma blanks or study samples were prepared for LC-MS by protein precipitation by adding 3 volumes of ethanol followed by centrifugation at 4000 rpm at 4° C. for 1 h. The supernatant was diluted with 2 volumes of Milli-Q water containing 0.1% formic acid before injection on the LC-MS system. […]

[2] = molecular target: T1, human calcitonin receptor (hCTR) (Homo sapiens, UniProt P30988); assay: Human calcitonin receptor (hCTR) in vitro potency assay, CRE-luciferase reporter in BHK cells; format: cell-based; conditions: BHK hCTR/CRE-Luc cells, 3 hours incubation, assay buffer with 1% ovalbumin; read-out: hCalcR potency, EC50
T1 construct: host or cells: BHK (Baby Hamster Kidney), Hollex-1 cell line
T1 sequence (P30988 25-474): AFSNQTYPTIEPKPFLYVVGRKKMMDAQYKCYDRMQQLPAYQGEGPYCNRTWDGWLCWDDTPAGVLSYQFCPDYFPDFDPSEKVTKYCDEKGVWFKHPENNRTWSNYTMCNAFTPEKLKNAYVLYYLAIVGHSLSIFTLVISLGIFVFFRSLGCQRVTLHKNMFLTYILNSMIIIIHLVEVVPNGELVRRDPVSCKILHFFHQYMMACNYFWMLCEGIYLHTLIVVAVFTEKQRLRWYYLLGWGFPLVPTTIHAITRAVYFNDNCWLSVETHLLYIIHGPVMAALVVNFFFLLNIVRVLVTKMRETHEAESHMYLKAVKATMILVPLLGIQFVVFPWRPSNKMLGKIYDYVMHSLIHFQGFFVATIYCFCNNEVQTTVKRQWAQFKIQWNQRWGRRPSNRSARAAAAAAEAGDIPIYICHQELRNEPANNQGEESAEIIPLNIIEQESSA
How it was run: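 Luciferase signal from a CRE reporter served as the cAMP read-out after 3 h, 37 °C exposure to compound. Cells were stably transfected BHK expressing hCTR, and the buffer was phenol-red-free DMEM with 10 mM HEPES and 1% ovalbumin. Compounds were tested as 7-point, 7-fold dilutions, often from about 10 nM.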

[3] = endogenous amylin, background statement; cited from earlier work

Cmax/D [1] [kg/L]	Compound	EC50 [2] [pM]	half-life [1] [h]	AUC/D [1] [kg·h/L]	half-life [3] [h]
0.057	CC[C@H](C)[C@H](NC(=O)[C@@H]1CCCN1C(=O)CNC(=O)[C@H](Cc1ccccc1)NC(=O)[C@H](CC(N)=O)NC(=O)[C@H](CC(N)=O)NC(=O)[C@H](CO)NC(=O)[C@H](CO)NC(=O)[C@H](Cc1c[nH]cn1)NC(=O)[C@H](CCCNC(=N)N)NC(=O)[C@H](CC(C)C)NC(=O)[C@H](Cc1ccccc1)NC(=O)[C@H](CCC(=O)O)NC(=O)[C@H](C)NC(=O)[C@H](CC(C)C)NC(=O)[C@H](CCCNC(=N)N)NC(=O)[C@H](CCC(N)=O)NC(=O)[C@@H](NC(=O)[C@H](C)NC(=O)[C@@H]1CSSC[C@H](NC(=O)[C@H](CCCCN)NC(=O)CC[C@H](NC(=O)CCCCCCCCCCCCCCCCCCC(=O)O)C(=O)O)C(=O)N[C@@H](CC(N)=O)C(=O)N[C@@H]([C@@H](C)O)C(=O)N[C@@H](C)C(=O)N[C@@H]([C@@H](C)O)C(=O)N1)[C@@H](C)O)C(=O)N[C@@H](CC(C)C)C(=O)N1CCC[C@H]1C(=O)N1CCC[C@H]1C(=O)N[C@H](C(=O)N[C@@H](CCC(N)=O)C(=O)N[C@H](C(=O)NCC(=O)N[C@@H](CO)C(=O)N[C@@H](CC(N)=O)C(=O)N[C@H](C(=O)N1CCC[C@H]1C(N)=O)[C@@H](C)O)C(C)C)[C@@H](C)O [Compound 1, N^1Alpha-[(4S)-4-carboxy-4-(19-carboxynonadecanoylamino)butanoyl]-[Glu14,Arg17,Pro25,Pro28,Pro29,Gln31,Pro37]-human amylin, reference compound] ({C20 diacid-γGlu}-KCNTATCATQRLAEFLRHSSNNFGPILPPTQVGSNTP-NH2; disulfide 2-7)	–	–	–	–
0.29	CC[C@H](C)[C@H](NC(=O)[C@@H]1CCCN1C(=O)CNC(=O)[C@H](Cc1ccccc1)NC(=O)[C@H](Cc1c[nH]cn1)NC(=O)[C@H](Cc1c[nH]cn1)NC(=O)[C@H](CC(C)C)NC(=O)[C@H](Cc1ccccc1)NC(=O)[C@H](CCC(=O)O)NC(=O)[C@H](C)NC(=O)[C@H](CC(C)C)NC(=O)[C@H](CCCNC(=N)N)NC(=O)[C@H](C)NC(=O)[C@@H](NC(=O)[C@H](CCC(N)=O)NC(=O)[C@H](C)NC(=O)[C@@H](NC(=O)[C@H](CO)NC(=O)[C@H](CC(C)C)NC(=O)[C@H](CO)NC(=O)CNC(=O)[C@H](C)NC(=O)CC[C@H](NC(=O)CCCCCCCCCCCCCCCCC(=O)O)C(=O)O)[C@@H](C)O)[C@@H](C)O)C(=O)N[C@@H](CC(C)C)C(=O)N1CCC[C@H]1C(=O)N1CCC[C@H]1C(=O)N[C@H](C(=O)N[C@@H](CC(=O)O)C(=O)N[C@H](C(=O)NCC(=O)N[C@@H](CO)C(=O)N[C@@H](CCC(=O)O)C(=O)N[C@H](C(=O)N1CCC[C@H]1C(N)=O)[C@@H](C)O)C(C)C)[C@@H](C)O [Compound 15, N^1-[(4S)-4-carboxy-4-(17-carboxyheptadecanoylamino)butanoy]-[Ala1,Gly2,Ser3,Leu4,Ser5,Ala7,Gln8,Ala10,Glu14,His17,Pro25,Pro28,Pro29,Asp31,Glu35,Pro37],des-(19-22)-human amylin] ({C18 diacid-γGlu}-AGSLSTAQTARLAEFLHHFGPILPPTDVGSETP-NH2)	1.01	85.9	21.07	–
–	amylin (KCNTATCATQRLANFLVHSSNNFGAILSSTNVGSNTY; listed as Homo sapiens) [Endogenous amylin, 37-amino acid long polypeptide hormone co-secreted with insulin from the pancreatic beta-cell]	–	–	–	0.25 to 0.333

Compound	Cmax/D [1] [kg/L]	EC50 [2] [pM]	half-life [1] [h]	AUC/D [1] [kg·h/L]	half-life [3] [h]
CC[C@H](C)[C@H](NC(=O)[C@@H]1CCCN1C(=O)CNC(=O)[C@H](Cc1ccccc1)NC(=O)[C@H](CC(N)=O)NC(=O)[C@H](CC(=O)O)NC(=O)[C@H](CO)NC(=O)[C@H](CO)NC(=O)[C@H](Cc1c[nH]cn1)NC(=O)[C@H](Cc1c[nH]cn1)NC(=O)[C@H](CC(C)C)NC(=O)[C@H](Cc1ccccc1)NC(=O)[C@H](CCC(=O)O)NC(=O)[C@H](C)NC(=O)[C@H](CC(C)C)NC(=O)[C@H](CCCNC(=N)N)NC(=O)[C@H](C)NC(=O)[C@@H](NC(=O)[C@H](CCC(N)=O)NC(=O)[C@H](C)NC(=O)[C@@H](NC(=O)[C@H](CO)NC(=O)[C@H](CC(C)C)NC(=O)[C@H](Cc1c[nH]cn1)NC(=O)[C@H](CO)NC(=O)[C@H](C)NC(=O)CC[C@H](NC(=O)CCCCCCCCCCCCCCCCCCC(=O)O)C(=O)O)[C@@H](C)O)[C@@H](C)O)C(=O)N[C@@H](CC(C)C)C(=O)N1CCC[C@H]1C(=O)N1CCC[C@H]1C(=O)N[C@H](C(=O)N[C@@H](CC(=O)O)C(=O)N[C@H](C(=O)NCC(=O)N[C@@H](CO)C(=O)N[C@@H](CC(N)=O)C(=O)N[C@H](C(=O)N1CCC[C@H]1C(N)=O)[C@@H](C)O)C(C)C)[C@@H](C)O [Compound 2, N^1-[(4S)-4-carboxy-4-(19-carboxynonadecanoylamino)butanoyl]-[Ala1,Ser2,His3,Leu4,Ser5,Ala7,Gln8,Ala10,Glu14,His17,Asp21,Pro25,Pro28,Pro29,Asp31,Pro37]-human amylin] ({C20 diacid-γGlu}-ASHLSTAQTARLAEFLHHSSDNFGPILPPTDVGSNTP-NH2)	0.15	1.31	146	14.06	–
